Measurements taken from US20260335348A1, “PHARMACEUTICAL FORMS OF A CD73 INHIBITOR” (ORIC Pharmaceuticals, Inc., priority 2022, published 2026).
≈ marks a conversion by molar mass, not a printed value. Where two headings read alike, the source gives them in different places.

Key:
[1] = Solubility of gentisate Form 2 of Compound 1 in water, SGF, FaSSIF and FeSSIF after 4 hours at 37 °C (HPLC); assay type: physicochemical
Procedure: The solubility of a polymorphic form of a gentisate form of Compound 1 was measured in water, simulated gastric fluid (SGF), fasted-state simulated intestinal fluid (FaSSIF), and fed-state simulated intestinal fluid (FeSSIF) after 4 hours and at 37 °C as follows.
The SGF media was prepared by weighing 49.5 mg of NaCl and 25.4 mg of Triton X-100 into a 100-mL volumetric flask. A volume of purified water was added to the flask and the resulting mixture was sonicated until all solids were dissolved. About 1.632 mL of HCl solution (1 M) were then added and sufficient purified water to the target volume and to adjust the pH to 1.8. The solution was then diluted to volume with purified water, mixed well and the pH value was measured to be 1.83.
A FaSSIF buffer was prepared by weighing 340.8 mg of NaH2PO4, 43.0 mg of NaOH and 619.6 mg of NaCl into a 100-mL volumetric flask. A volume of purified water was added to the flask and the resulting mixture was sonicated until the solids had dissolved. A second volume of purified water was added to the flask to adjust the pH to 6.5. The solution was diluted with another volume of purified water, mixed, and the pH value was measured to be 6.54. The FaSSIF media was prepared by weighing 110.4 mg of SIF powder into a 50-mL volumetric flask to which a volume of FaSSIF dissolving buffer was added. The resulting mixture was sonicated until the SIF powder dissolved. Then mixture was then diluted to volume with FaSSIF dissolving buffer and mixed well. The FaSSIF solution was equilibrated for 2 hours at room temperature before it was used.
A FeSSIF dissolving buffer was prepared by weighing 0.82 mL of glacial acetic acid, 404.9 mg of NaOH and 1188.2 mg of NaCl into a 100-mL volumetric flask. A volume of purified water was added to the flask and the mixture was sonicated until the solids were dissolved. A second volume of purified water was added to the target volume to adjust the pH to 5.0. The solution was diluted with a volume of purified water, mixed well the pH value was measured to be 4.96. FeSSIF media was prepared by weighing 559.6 mg of SIF powder into a 50-mL volumetric flask. A volume of FeSSIF dissolving buffer was added to the flask and the resulting mixture was sonicated the SIF powder was dissolved. A second volume FeSSIF dissolving buffer was added and the resulting mixture was mixed well. The FeSSIF solution was equilibrated for 2 hours to room temperature before use.
An Agilent 1260 high performance liquid chromatography (HPLC) instrument equipped with a DAD detector, a Waters H-Class UPLC with PDA detector was used in the solubility measurements using the conditions set forth in Table 6.
About 10 mg of a gentisate Form 2 of Compound 1 (calculated by weight of the free base of Compound 1) was placed into a 3 mL glass vial and 1 mL of the respective media (water, SGF, FaSSIF and FeSSIF) was added into each glass vial. A cap was placed on each of the vials and they were rolled at 37 °C (25 rpm) for 4 hours. The suspension was then extracted into a centrifugation tube prior to centrifugation (10000 rpm, 37 °C, 5 min) and filtration (0.22 μm PTFE membrane). The resulting supernatant was analyzed by HPLC and the pH was determined. The solubility of the polymorphic form of a gentisate Form 2 of Compound 1 measured was as set forth above was as set forth in Table 7.

[2] = Stability of Form 2 of a gentisate form of Compound 1 under storage conditions (reverse-phase HPLC impurities, XRPD); assay type: physicochemical; details: for Total impurities present: reverse-phase HPLC
Procedure: To measure stability of the Form 2 of a gentisate form of Compound 1 under storage conditions, samples of Form 2 of a gentisate form of Compound 1 were placed in double low-density polyethylene bags with desiccant between the bags and each was placed into a high-density polyethylene drum. One drum was stored at a temperature of 5 °C and samples of the material were taken at 1 month and 3 months, and the samples were analyzed for the presence of impurities. The other drum was stored at a temperature of 25 °C and at 60% relative humidity (RH), samples of the materials were taken at 1 month and 3 months, and the samples were analyzed for the presence of impurities. The amount of the Form 2 of a gentisate form of Compound 1, and the amount ofany impurities, in each sample was measured by reverse-phase high performance liquid chromatography using the test conditions set and solvent gradients forth in Table 13 and Table 14. The samples were tested to determine the amount remaining of Form 2 at each time point, and the measurements were conducted by x-ray powder diffraction (XRPD) according to USP <941>.

[3] = storage 5 °C, initial (time = zero)
[4] = storage 25 °C and 60% RH, 1 month
[5] = storage 25 °C and 60% RH, 3 months
[6] = storage 25 °C and 60% RH, initial (time = zero)

- pH (of supernatant) ([1]; fasted-state simulated intestinal fluid (FaSSIF)): 2.5
- solubility at 4 h ([1]; fasted-state simulated intestinal fluid (FaSSIF), pH 2.5, read-out: Solubility (calculated as the amount of free base of Compound 1)): > 10.2 mg/mL
- pH (of supernatant) ([1]; fed-state simulated intestinal fluid (FeSSIF)): 4.4
- solubility at 4 h ([1]; fed-state simulated intestinal fluid (FeSSIF), pH 4.4, read-out: Solubility (calculated as the amount of free base of Compound 1)): > 9.42 mg/mL
- pH (of supernatant) ([1]; simulated gastric fluid (SGF)): 1.7
- solubility at 4 h ([1]; simulated gastric fluid (SGF), pH 1.7, read-out: Solubility (calculated as the amount of free base of Compound 1)): > 9.71 mg/mL
- pH (of supernatant) ([1]; water): 1.7
- solubility at 4 h ([1]; water, pH 1.7, read-out: Solubility (calculated as the amount of free base of Compound 1)): 26.2 mg/mL (≈ 43.2 mM)
- XRPD ([2]; storage 5 °C, 1 month): Crystalline
- Total impurities present ([2]; storage 5 °C, 1 month): 4.5 % area
- XRPD ([2]; storage 5 °C, 3 months): Crystalline
- Total impurities present ([2]; storage 5 °C, 3 months): 4.2 % area
- XRPD [2, 3]: Crystalline
- Total impurities present [2, 3]: 4.4 % area
- XRPD [2, 4]: Crystalline
- Total impurities present [2, 4]: 4.5 % area
- XRPD [2, 5]: Crystalline
- Total impurities present [2, 5]: 4.3 % area
- XRPD [2, 6]: Crystalline
- Total impurities present [2, 6]: 4.4 % area
- Stability ([2]; stored at 5 °C): stable up to 3 months
- Stability ([2]; stored at 25 °C and at 60% RH): stable up to 3 months
SMILES: O=P(O)(O)[C@@](CO)(COCc1nn[nH]n1)OC[C@H]1O[C@@H](n2ncc3c(NC4CCCC4)nc(Cl)nc32)[C@H](O)[C@@H]1O [Form 2 of a gentisate form of Compound 1]
